{"source": "patent US20120213860A1", "about": "“XENON-BASED INHALABLE DRUG FOR TREATING OR PREVENTING INDUCED DYSKINESIA” (L'Air Liquide Societe Anonyme Pour L'Etude Et …, priority 2009, published 2012)", "test_system": "dyskinesias induced by levodopa", "test": "levodopa-induced abnormal involuntary movements (AIMs) in rats with unilateral 6-OHDA lesions (animal model of Parkinson's disease)", "assay_type": "in vivo, Sprague-Dawley rats", "experimental": "More precisely, the effects of administering several gases as treatment of dyskinesias were evaluated in rats having lesions produced by unilateral injection of 6-OHDA (6-hydroxydopamine, a powerful neurotoxic) in an ascending nigrostriatal pathway (animal model of Parkinson's disease). In this model, long-term treatment of rats with levodopa induces abnormal involuntary movements (AIMs) that are similar to those in dyskinesias induced by levodopa in humans. The rats with lesions induced by 6-OHDA serving as the model of Parkinson's disease are prepared as follows. 16 Sprague-Dawley rats weighing between 250 and 300 g are kept in a room with controlled temperature (about 22° C.) with day/night cycles of 12 h, with free access to food and water. The animals receive, 30 min before the intervention, an intraperitoneal injection of pargyline (5 mg/kg; inhibitor of monoamine oxidase-B) and of desipramine (25 mg/kg; norepinephrine reuptake inhibitor). The animals are put in an anesthesia chamber with continuous flow of oxygen at 1.5 l/minute and 3% isoflurane. After anesthesia, the animals are placed in a stereotaxic frame. […] The injection site is localized according to the coordinates relative to bregma: −2.8 mm rostral, 2 mm lateral and 9 mm under the cranium (Paxinos and Watson, 1986). The rats are left to recover for 3 weeks after the lesions. The animals receive 0.05 mg/kg s.c. of apomorphine. […] The animals that remain receive an administration of 6 mg/kg of levodopa and 15 mg/kg of benzerazide (i.p.), twice a day, for 21 consecutive days. During these 21 days, the abnormal involuntary movements (AIMs) are assessed on days 1, 7, 14 and 21. The therapeutic treatments begin on day 22. They consist of administering the following to the rats by inhalation: • xenon/O2 gas mixtures (50%/50% by volume) as test gas according to the invention and; • N2/O2 gas mixtures (50%/50% by volume) as control. The gas mixtures are premixtures supplied by Air Liquide™. The gas concentrations are monitored continuously. Exposure to the gases is effected in a Plexiglas chamber with a length of 42 cm, and width and height of 26 cm. Each time, 4 or 5 rats are put in the chamber and inhale the test gas for 1 h. The chamber is supplied with fresh gas at a flow rate of 4 l/min. The abnormal involuntary movements (AIMs) are assessed for 180 min after injection of levodopa. More precisely, the animals are put in boxes (22 cm×34 cm×20 cm) and are left there for 15 minutes for them to become accustomed to their environment. Levodopa methyl ester (6 mg/kg, i.p.) is then administered at time intervals of 1 minute between rats. Each rat is observed for 1 minute at intervals of 30 minutes after injection and for a period of 180 min. Four subtypes of AIMs are assessed, namely: • Locomotor (Lo): increased movements contralateral to the lesion, • Hind limbs (Li): uncontrolled random movements of the hind limbs contralateral to the lesion, • Orolingual (Ol): excessive mastication and jaw movements with tongue protrusion, • Axial (Ax): dystonic postures or choreiform twisting of the neck and of the upper body contralaterally. The severity of the MIAs is scored from 1 to 4 according to the duration of the MIAs over an observation period of one minute: • 0.1=presence of MIAs for less than 30 s • 0.2=presence of MIAs for more than 30 s • 0.3=presence of MIAs during the minute with interruption by external stimuli • 0.4=presence of MIAs during the minute without interruption by external stimuli", "key": {"[1]": {"details": "parkinsonian rat, xenon/O2 50%/50% by volume inhaled 1 h, vs control N2/O2 50%/50%, amplitude and duration"}, "[2]": {"details": "parkinsonian rat, xenon/O2 50%/50% inhaled, vs control N2/O2"}}, "data": [{"smiles": "[Xe]", "note": "[xenon]", "values": [{"measurement": "appearance of the 4 types of dyskinesias (Lo, Li, Ol, Ax)", "setting": "animals breathing xenon/O2 (50%/50% by volume), amplitude and duration", "result": "greatly reduced"}, {"measurement": "axial dyskinesias (Ax), kinetics following administration of L-Dopa (FIG. 3A)", "setting": "[1]", "result": "clear decrease"}, {"measurement": "hind limb dyskinesias (Li), kinetics following administration of L-Dopa (FIG. 4A)", "setting": "[1]", "result": "significant decrease"}, {"measurement": "locomotor dyskinesias (Lo), kinetics following administration of L-Dopa (FIG. 6A)", "setting": "[1]", "result": "large decrease"}, {"measurement": "orolingual dyskinesias (Ol), kinetics following administration of L-Dopa (FIG. 5A)", "setting": "[1]", "result": "clear decrease"}, {"measurement": "mean value of hind limb dyskinesias (Li) from 60 to 180 min (FIG. 4B)", "setting": "[2]", "result": "fewer hind limb dyskinesias"}, {"measurement": "mean value of locomotor dyskinesias from 60 to 180 min (FIG. 6B)", "setting": "[2]", "result": "fewer locomotor dyskinesias"}, {"measurement": "mean value of orolingual dyskinesias (Ol) from 60 to 180 min (FIG. 5B)", "setting": "[2]", "result": "fewer orolingual dyskinesias"}, {"measurement": "mean value of the axial dyskinesias from 60 to 180 min (FIG. 3B)", "setting": "[2]", "result": "fewer axial dyskinesias"}]}]}
